The values below come from patent publication US7094909B2, “HIV protease inhibitors, compositions containing the same, their pharmaceutical uses and materials for their synthesis” (priority 2001, dated 2006).

The assay concerns the target T1, HIV-1 protease (Q7S mutant form) (Human immunodeficiency virus type 1 group M subtype B, UniProt P04585, Q495S).
T1 construct: made in house
As to the kind of experiment: HIV-1 Protease RET assay. In kind it is biochemical. To be noted: Ave. Ki (nM), RET assay, Q7S enzyme, Morrison tight binding fit. The protocol: Ki's for the inhibitors of HIV-1 protease were determined using a resonance energy transfer (RET) assay. […] This enzyme is first partially purified as inclusion bodies from cell lysate. It is then solublized in 8M urea and passed through a Q-Sepharose column (Pharmacia) for further purification. To refold this protein, samples containing Q7S is dialyzed into 50 mM sodium phosphate pH 7.0, 50 mM NaCl, 10 mM DTT, and 10% glycerol.
The commercially available peptide substrate (Molecular Probes Cat. # H-2930) RE(EDANS)SQNYPIVQK(DABCYL)R is used to assess activity and Ki's. This peptide is cleaved quantitatively by HIV-1 Pr at the Tyr-Pro bond. The EDANS fluorophore absorbs at 340 nm and emits at 490 nm. The reaction is carried out in a 96 well plate in a total volume of 100 µL and is run for 12 minutes at 37 C under steady-state conditions with 5 µM substrate and 2 nM active dimer enzyme concentration. The literature value Km for this substrate and enzyme is 103+/−8 µM (See Matayoshi, et al., “Novel Fluorogenic Substrates for Assaying Retroviral Proteases by Resonance Energy Transfer,” Science 247, 954 (1990)). The buffer for this reaction is 0.1M sodium acetate pH 4.8, 1M NaCl, 1 mM EDTA, 5 mM dithiothreitol, 10% dimethyl sulfoxide and 1 mg/ml bovine serum albumin. Inhibition curves are fit using the Morrison tight binding equation.

`Cc1ccccc1CNC(=O)[C@H]1N(C(=O)[C@@H](O)[C@H](Cc2ccccc2)NC(=O)NC(C)C)CSC1(C)C` [Example B17, 3-[(S)-2-Hydroxy-3-(3-isopropyl-ureide)-4-phenyl-butyryl]-5,5-dimethyl-thiazolidine-4carboxylic acid 2-methyl-benzylamide] returned a Ki of 4.8 nM.
With `CC1(C)SCN(C(=O)[C@@H](O)[C@H](Cc2ccccc2)NC(=O)NCc2ccccc2Cl)C1C(=O)NCc1ccccc1Cl` (stereo partly drawn) [Example B46, 3-{(2S,3S)-3-[3-(2-Chloro-benzyl)-ureido]-2-hydroxy-4-phenyl-butyryl}-5,5-dimethyl-thiazolidine-4-carboxylic acid 2-chloro-benzylamide] the figure was 93 nM; with `CC1(C)SCN(C(=O)[C@@H](O)[C@H](Cc2ccccc2)NC(=O)NCc2c(F)cccc2F)[C@@H]1C(=O)NCc1c(F)cccc1F` [Example B49], 120 nM; with `C=CCOC(=O)N[C@@H](Cc1ccccc1)[C@H](O)C(=O)N1CSC(C)(C)[C@H]1C(=O)NCc1c(F)cccc1F` [Example B50, {(1S,2S)-1-Benzyl-3-[(R)-4-(2,6-difluoro-benzylcarbamoyl)-5,5-dimethyl-thiazolidin-3-yl]-2-hydroxy-3-oxo-propyl}-carbamic acid allyl ester], 7.4 nM.
Then `CC1(C)SCN(C(=O)[C@@H](O)[C@H](Cc2ccccc2)NC(=O)NCc2ccccc2C(F)(F)F)[C@@H]1C(=O)NCc1ccccc1C(F)(F)F` [Example B52, 3-{(2S,3S)-2-Hydroxy-4-phenyl-3-[3-(2-trifluoromethyl-benzyl)-ureido]-butyryl}-5,5-dimethyl-thiazolidine-4-carboxylic acid 2-trifluoromethyl-benzylamide], with 120 nM; and `Cc1ccccc1CNC(=O)[C@H]1N(C(=O)[C@@H](O)[C@H](Cc2ccccc2)NC(=O)Nc2cccc(F)c2)CSC1(C)C` [Example B55, 3-{(2S,3S)-3-[3-(3-Fluoro-phenyl)-ureido]-2-hydroxy-4-phenyl-butyryl}-5,5-dimethyl-thiazolidine-4-carboxylic acid 2-methyl-benzylamide], with 679 nM.
With `Cc1ccccc1CNC(=O)[C@H]1N(C(=O)C(O)C(Cc2ccccc2)NS(=O)(=O)c2ccc(C#N)cc2)CSC1(C)C` (stereo partly drawn) [Example B58, 3-[(2S,3S)-3-(4-Cyano-benzenesulfonylamino)-2-hydroxy-4-phenyl-butyryl]-5,5-dimethyl-thiazolidine-carboxylic acid 2-methyl-benzylamide] the figure was 240 nM; with `CC1(C)SCN(C(=O)[C@@H](O)[C@H](Cc2ccccc2)NC(=O)NCc2ccccc2)[C@@H]1C(=O)NCc1ccccc1` [Example B61, 3-[(2S,3S)-3-(3-Benzyl-ureido)-2-hydroxy-4-phenyl-butyryl]-5,5-dimethyl-thiazolidine-4-carboxylic acid benzylamide], 16.9 nM; with `Cc1ccccc1CNC(=O)N[C@@H](Cc1ccccc1)[C@H](O)C(=O)N1CSC(C)(C)[C@H]1C(=O)NCc1ccccc1C` [Example B62, 3-{(2S,3S)-2-Hydroxy-3-[3-(2-methyl-benzyl)-ureido]-4-phenyl-butyryl}-5,5-dimethyl-thiazolidine-4-carboxylic acid 2-methyl-benzylamide], 4.2 nM.
`COc1ccc(CNC(=O)NC(Cc2ccccc2)C(O)C(=O)N2CSC(C)(C)[C@H]2C(=O)NCc2ccc(OC)cc2)cc1` (stereo partly drawn) [Example B63, 33-{(2S,3S)-2-Hydroxy-3-[3-(4-methoxy-benzyl)-ureido]-4-phenyl-butanoyl}-5,5-dimethyl-thiazolidine-4-carboxylic acid 4-methoxy-benzylamide] gave a Ki of 7.8 nM.
Then `Cc1ccccc1CNC(=O)NC(Cc1ccccc1)C(O)C(=O)N1CSC(C)(C)[C@H]1C(=O)NCc1ccncc1` (stereo partly drawn) [Example B66, 3-{(2S,3S)-2-Hydroxy-3-[3-(2-methyl-benzyl)-ureido]-phenyl-butyryl}-5,5-dimethyl-thiazolidine-4-carboxylic acid (pyridin-4-ylmethyl)-amide], with 5.2 nM.

As a reminder, the Ki is the dissociation constant of the complex between target and ligand, obtained from inhibition or displacement. Read a low Ki as a stronger hold on the target.
